Structures are written as SMILES.

For this experiment, the target named is T1, Trx-6×His-BCL6 (human BCL6 BTB domain covering amino-acid sequence 5-129) (Homo sapiens, UniProt P41182).
T1 construct: made in house
Briefly: HTRF assay (BCL6 / BCOR peptide). The note with it: 1 nM Trx-6×His-BCL6, 300 nM BCOR-AF633 peptide, 2 hours incubation at room temperature; read-out: HTRF avg pIC50 (converted). The format is binding. The method, then: After 2 hours incubation at room temperature the plate was read on a Pherastar FSX (BMG Labtech) plate reader equipped with 337 nm laser excitation filter, a first emission filter at 620 nm and a second emission filter at 665 nm. The % inhibition at each concentration was calculated by normalising FRET ratio to the appropriate high (DMSO with all reagents) and low (DMSO without BCL6) controls.
A general note: Time-resolved FRET reads energy transfer from a long-lived donor to a nearby acceptor.
On to `C[C@H]1CN(c2ncc(Cl)c(Nc3ccc4c(c3)c3c(c(=O)n4C)OCC(F)(F)[C@H](C4CC4)N3)n2)CC(=O)N1C` [Example 1c, (S)-10-((5-chloro-2-((S)-3,4-dimethyl-5-oxopiperazin-1-yl)pyrimidin-4-yl)amino)-2-cyclopropyl-3,3-difluoro-7-methyl-1,2,3,4-tetrahydro-[1,4]oxazepino[2,3-c]quinolin-6(7H)-one], for which the IC50 is 2.34 nM. For `Cn1c(=O)c2c(c3cc(Nc4nc(N5CC6CCC(C5)N6CC5CC5(F)F)ncc4Cl)ccc31)N[C@@H](C1CC1)C(F)(F)CO2` (stereo partly drawn) [Example 9za, (2S)-10-((5-chloro-2-(8-((2,2-difluorocyclopropyl)methyl)-3,8-diazabicyclo[3.2.1]octan-3-yl)pyrimidin-4-yl)amino)-2-cyclopropyl-3,3-difluoro-7-methyl-1,2,3,4-tetrahydro-[1,4]oxazepino[2,3-c]quinolin-6(7H)-one] the value was 7.59 nM; for `C[C@H]1CCCN(c2ncc(Cl)c(Nc3ccc4c(c3)c3c(c(=O)n4C)OCC(F)(F)[C@H](C4CC4)N3)n2)C1` [Example 1k, (S)-10-((5-chloro-2-((S)-3-methylpiperidin-1-yl)pyrimidin-4-yl)amino)-2-cyclopropyl-3,3-difluoro-7-methyl-1,2,3,4-tetrahydro-[1,4]oxazepino[2,3-c]quinolin-6(7H)-one], 38 nM; for `Cn1c(=O)c2c(c3cc(Nc4nc(N5CC(C#N)C5)ncc4Cl)ccc31)N[C@@H](C1CC1)C(F)(F)CO2` [Example 11p, (S)-1-(5-chloro-4-((2-cyclopropyl-3,3-difluoro-7-methyl-6-oxo-1,2,3,4,6,7-hexahydro-[1,4]oxazepino[2,3-c]quinolin-10-yl)amino)pyrimidin-2-yl)azetidine-3-carbonitrile], 4.07 nM. For `Cn1c(=O)c2c(c3cc(Nc4nc(N5CC(C(F)F)C5)ncc4Cl)ccc31)N[C@@H](C1CC1)C(F)(F)CO2` [Example 11u, (S)-10-((5-chloro-2-(3-(difluoromethyl)azetidin-1-yl)pyrimidin-4-yl)amino)-2-cyclopropyl-3,3-difluoro-7-methyl-1,2,3,4-tetrahydro-[1,4]oxazepino[2,3-c]quinolin-6(7H)-one] the value was 11.5 nM.

In the case of `CC1CN(c2ncc(Cl)c(Nc3ccc4c(c3)c3c(c(=O)n4C)OCC(F)(F)[C@H](C4CC4)N3)n2)C1` [Example 11o, (S)-10-((5-chloro-2-(3-methylazetidin-1-yl)pyrimidin-4-yl)amino)-2-cyclopropyl-3,3-difluoro-7-methyl-1,2,3,4-tetrahydro-[1,4]oxazepino[2,3-c]quinolin-6(7H)-one], the IC50 was 7.59 nM. For `CCN1CC2CCC(C1=O)N2c1ncc(Cl)c(Nc2ccc3c(c2)c2c(c(=O)n3C)OCC(F)(F)[C@H](C3CC3)N2)n1` (mixture of isomers) [Example 9r, (S)-10-((5-chloro-2-((1S,5R)-3-ethyl-2-oxo-3,8-diazabicyclo[3.2.1]octan-8-yl)pyrimidin-4-yl)amino)-2-cyclopropyl-3,3-difluoro-7-methyl-1,2,3,4-tetrahydro-[1,4]oxazepino[2,3-c]quinolin-6(7H)-one; (S)-10-((5-chloro-2-((1R,5S)-3-ethyl-2-oxo-3,8-diazabicyclo[3.2.1]octan-8-yl)pyrimidin-4-yl)amino)-2-cyclopropyl-3,3-difluoro-7-methyl-1,2,3,4-tetrahydro-[1,4]oxazepino[2,3-c]quinolin-6(7H)-one] the value was 3.63 nM; for `Cn1c(=O)c2c(c3cc(Nc4nc(N5CCC[C@@H](O)C5)ncc4Cl)ccc31)N[C@@H](C1CC1)C(F)(F)CO2` [Example 1j, (S)-10-((5-chloro-2-((R)-3-hydroxypiperidin-1-yl)pyrimidin-4-yl)amino)-2-cyclopropyl-3,3-difluoro-7-methyl-1,2,3,4-tetrahydro-[1,4]oxazepino[2,3-c]quinolin-6(7H)-one], 2.95 nM.

On to `C[C@@H]1CCN(c2ncc(Cl)c(Nc3ccc4c(c3)c3c(c(=O)n4C)OCC(F)(F)[C@H](C4CC4)N3)n2)C1` [Example 12x02, (S)-10-((5-chloro-2-((R)-3-methylpyrrolidin-1-yl)pyrimidin-4-yl)amino)-2-cyclopropyl-3,3-difluoro-7-methyl-1,2,3,4-tetrahydro-[1,4]oxazepino[2,3-c]quinolin-6(7H)-one], for which the IC50 was 21.4 nM. As for `Cn1c(=O)c2c(c3cc(Nc4nc(N5CC6CC(C5)O6)ncc4Cl)ccc31)N[C@@H](C1CC1)C(F)(F)CO2` [Example 12d, (2S)-10-((2-(6-oxa-3-azabicyclo[3.1.1]heptan-3-yl)-5-chloropyrimidin-4-yl)amino)-2-cyclopropyl-3,3-difluoro-7-methyl-1,2,3,4-tetrahydro-[1,4]oxazepino[2,3-c]quinolin-6(7H)-one], the IC50 was 4.9 nM. For `Cn1c(=O)c2c(c3cc(Nc4nc(N5C[C@H]6C[C@@H]5CO6)ncc4Cl)ccc31)N[C@@H](C1CC1)C(F)(F)CO2` [Example 1e, (S)-10-((2-((1R,4R)-2-oxa-5-azabicyclo[2.2.1]heptan-5-yl)-5-chloropyrimidin-4-yl)amino)-2-cyclopropyl-3,3-difluoro-7-methyl-1,2,3,4-tetrahydro-[1,4]oxazepino[2,3-c]quinolin-6(7H)-one] the value was 3.24 nM; for `CCC1CCN(c2ncc(Cl)c(Nc3ccc4c(c3)c3c(c(=O)n4C)OCC(F)(F)[C@H](C4CC4)N3)n2)C1` (mixture of isomers) [Example 11y, (S)-10-((5-chloro-2-((R)-3-ethylpyrrolidin-1-yl)pyrimidin-4-yl)amino)-2-cyclopropyl-3,3-difluoro-7-methyl-1,2,3,4-tetrahydro-[1,4]oxazepino[2,3-c]quinolin-6(7H)-one:(S)-10-((5-chloro-2-((S)-3-ethylpyrrolidin-1-yl)pyrimidin-4-yl)amino)-2-cyclopropyl-3,3-difluoro-7-methyl-1,2,3,4-tetrahydro-[1,4]oxazepino[2,3-c]quinolin-6(7H)-one (1:1)], 46.8 nM; for `Cn1c(=O)c2c(c3cc(Nc4nc(N5CC(C)(C)C5)ncc4Cl)ccc31)N[C@@H](C1CC1)C(F)(F)CO2` [Example 11n, (S)-10-((5-chloro-2-(3,3-dimethylazetidin-1-yl)pyrimidin-4-yl)amino)-2-cyclopropyl-3,3-difluoro-7-methyl-1,2,3,4-tetrahydro-[1,4]oxazepino[2,3-c]quinolin-6(7H)-one], 14.8 nM. The result for `CC(=O)N[C@@H]1C[C@H](C)CN(c2ncc(Cl)c(Nc3ccc4c(c3)c3c(c(=O)n4C)OCC(F)(F)[C@H](C4CC4)N3)n2)C1` [Example 1g, N-((3R,5S)-1-(5-chloro-4-(((S)-2-cyclopropyl-3,3-difluoro-7-methyl-6-oxo-1,2,3,4,6,7-hexahydro-[1,4]oxazepino[2,3-c]quinolin-10-yl)amino)pyrimidin-2-yl)-5-methylpiperidin-3-yl)acetamide] reads 3.16 nM; that for `Cn1c(=O)c2c(c3cc(Nc4nc(N5CCC(F)(F)C(CC(=O)N6CC(F)(F)C6)C5)ncc4Cl)ccc31)N[C@@H](C1CC1)C(F)(F)CO2` (mixture of isomers) [Example 12x20, (2S)-10-((5-chloro-2-(3-(2-(3,3-difluoroazetidin-1-yl)-2-oxoethyl)-4,4-difluoropiperidin-1-yl)pyrimidin-4-yl)amino)-2-cyclopropyl-3,3-difluoro-7-methyl-1,2,3,4-tetrahydro-[1,4]oxazepino[2,3-c]quinolin-6(7H)-one], 3.72 nM.

Source of the values: US12528826B2, “[1,4]oxazepino[2,3-c]quinolinone derivatives as BCL6 inhibitors” (Cancer Research Technology Limited, priority 2019, dated 2026).
